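Where inhibition never reached the appropriate level, the endpoint shown equals the highest concentration tested. Otherwise, values were interpolated linearly from a five-concentration, 48-hour dose response in 96-well plates. GI50 = concentration required for 50% inhibition of growth.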 The source made the active and inactive calls. Rule as the data show it: active = GI50 up to about 1.1 µM and inactive = higher.

Test systems include OVCAR-5; COLO 205; U-251; HOP-62; UO-31; MDA-MB-435; NCI-H226; HCT-15; SW-620; SK-MEL-2; RPMI-8226; Malme-3M; Hs-578T; PC-3; SF-268; OVCAR-3; HL-60; MOLT-4; NCI-H23.
Holding throughout (experiment): NCI-60 cell line screen, 48 h

`CCCCc1ccc(Nc2nc(Cl)c3ncn(COCCOC(C)=O)c3n2)cc1`: the GI50 was 17.9 µM (inactive) in the test with OVCAR-5; 23.5 µM (inactive) with COLO 205; 18.3 µM (inactive) in the test on U-251; 17.1 µM (inactive) with HOP-62; 16 µM (inactive) in the test with UO-31; 18.5 µM (inactive) in the test on MDA-MB-435. Besides, the GI50 in the test with NCI-H226 is 21.5 µM (inactive); in the test on HCT-15, 16.7 µM; with SW-620, 21.1 µM (inactive); in the test with SK-MEL-2, 14.8 µM (inactive); in the test on RPMI-8226, 18.2 µM (inactive); with Malme-3M, 17.3 µM (inactive). For the same compound, the GI50 with Hs-578T was 21.7 µM (inactive); with PC-3 it was 16.8 µM (inactive); in the test with SF-268 it was 19.4 µM (inactive); in the test on OVCAR-3 it was 20.2 µM (inactive); in the test with HL-60, 20.9 µM (inactive); with MOLT-4 it was 21.2 µM (inactive). Besides, the GI50 in the test on NCI-H23 is 16.2 µM (inactive).
Regarding `Cc1ccc(C(=O)Nc2ccc(CP(=O)(O)O)cc2)cc1NC(=O)Nc1cc(C(=O)Nc2ccc(CP(=O)(O)O)cc2)ccc1C`, the GI50 with OVCAR-5, in the test on COLO 205, in the test on U-251, in the test with HOP-62, with UO-31 and with MDA-MB-435 was > 100 µM (inactive) each time. Moreover, the GI50 was > 100 µM (inactive) with NCI-H226; above 100 µM with HCT-15; > 100 µM (inactive) with SW-620; > 100 µM (inactive) in the test on SK-MEL-2; > 100 µM (inactive) with RPMI-8226; > 100 µM (inactive) in the test with Malme-3M. Further, the GI50 in the test with Hs-578T, with PC-3, with SF-268, in the test with OVCAR-3, in the test on HL-60 and in the test on MOLT-4 was > 100 µM (inactive) each time. Moreover, the GI50 with NCI-H23 was > 100 µM (inactive).
For the compound `N=C(N)N/N=C/c1c(-c2ccccc2[N+](=O)[O-])nc2sccn12`, the GI50 in the test with OVCAR-5 is 30.7 µM (inactive); in the test on COLO 205 it was 15.8 µM (inactive); in the test on U-251, 15.8 µM (inactive); in the test with HOP-62 it was 25.7 µM (inactive); in the test with UO-31, 36.8 µM (inactive); in the test with MDA-MB-435 it was 17.1 µM (inactive). The GI50 in the test with NCI-H226 is 17.4 µM (inactive); in the test on HCT-15, above 100 µM; in the test on SW-620, 18.4 µM (inactive); in the test on SK-MEL-2 it was 15.1 µM (inactive); with RPMI-8226, 19.5 µM (inactive); in the test on Malme-3M, 15.7 µM (inactive). Moreover, the GI50 with Hs-578T was 29.1 µM (inactive); in the test with PC-3, 24.3 µM (inactive); in the test on SF-268, 28.8 µM (inactive); in the test with OVCAR-3 it was 24.9 µM (inactive); in the test with HL-60, 16.6 µM (inactive); in the test on MOLT-4 it was 17.7 µM (inactive). In the test on NCI-H23, the GI50 was 29.2 µM (inactive).
`CN1CCN(C(=O)CCNC(=O)Cc2ccc(C(=O)c3ccccc3)cc2)CC1`: the GI50 was > 100 µM (inactive) in the test with OVCAR-5; 74 µM (inactive) in the test on COLO 205; > 100 µM (inactive) in the test on U-251; > 100 µM (inactive) with HOP-62; > 100 µM (inactive) with UO-31; 22.9 µM (inactive) in the test with MDA-MB-435. Also, the GI50 in the test with NCI-H226 is > 100 µM (inactive); in the test with HCT-15, above 100 µM; in the test with SW-620, 97.3 µM (inactive); in the test on SK-MEL-2, > 100 µM (inactive); in the test on RPMI-8226 it was > 100 µM (inactive); in the test with Malme-3M it was > 100 µM (inactive). Also, the GI50 is > 100 µM (inactive) with Hs-578T; > 100 µM (inactive) in the test with PC-3; > 100 µM (inactive) in the test with SF-268; > 100 µM (inactive) in the test on OVCAR-3; 58.3 µM (inactive) in the test on HL-60; > 100 µM (inactive) with MOLT-4. For the same compound, in the test with NCI-H23, the GI50 is > 100 µM (inactive).

The values are drawn from ChEMBL document CHEMBL1201862, “PubChem BioAssay data set” (2004).
